Results published in patent US9381273B2, “Scaffolds with oxygen carriers, and their use in tissue regeneration” (Yissum Research Development Company of the Hebrew …, priority 2008, dated 2016).

How the values were obtained:
[1] = tested on: tet-off BMP2 Luc/GFP cells; assay: Cell survival in ectopic implants, bioluminescence imaging (BLI); format: in vivo, C3H/HeN mice; settings: fibrin gel, 5% and 10% PFTBA groups pooled
Source text: Imaging of cell viability in vivo—Tet-off BMP2 Luc/GFP Cell viability in the ectopic implants was quantified using the BLI system as was described (Bar, Zilberman et al. 2003). This CCCD tracking system (Roper Chemiluminescence Imaging System) consists of a CCCD camera (model LN/CCD-1300EB; Roper Scientific Inc.) equipped with an ST-133 controller and a 50-mm Nikon lens (Nikon Inc.). In this system, a pseudocolor image represents light intensity (blue signifies least intense and red most intense). The integrated light is the result of 2-minute exposure and acquisition. This CCCD camera converts photons to electrons with an efficiency of approximately 90% in the wavelength emission range of luciferin and converts approximately 1.8 electrons per count. Thus, every count represents 2 photons. The measurement is a total integrated signal of a constant exposure interval. […] The measurement can be verified by using a progressively larger region of interest (ROI) and by subtracting background readings. An increase in the ROI has no appreciable effect on the total intensity that is measured. Before light detection, the mice were anesthetized with a ketamine-xylazine mixture, which is injected intraperitoneally at 1 μl/g body weight. […]

osteocalcin = assay: Host osteocalcin gene expression in vivo, BLI in OC/Luc transgenic mice; set-up: species or system OC/Luc Tg mice; settings: fibrin gel with MSCs, 5 or 10% PFTBA pooled
Source text: Osteocalcin gene expression in vivo—In order to analyze the effect of PFTBA supplementation on osteocalcin gene expression in vivo, transgenic mice (Oc-Luc), which harbor the Luc gene under the control of the osteogenic tissue-specific promoter, osteocalcin (Bar, Zilberman et al. 2003) were utilized. In order to monitor Luc activity in real-time a quantitative, the BLI system with the non-invasive cooled charge-coupled device (CCCD) camera was used. In this model, osteogenic activity in the transgenic mice was reported by Luc expression, which is activated by the osteocalcin promoter. This activity is detected by the CCCD as an emitted light following an injection of luciferin. The result values were normalized to constitutive tail expression of Luc, as previously described (Bar, Zilberman et al. 2003), so that the different mice that express the transgene with different intensities could be compared. In this experiment, 1×10^6 tet-off BMP2 cells in fibrin gel supplemented with 5 or 10% PFTBA, or not supplemented at all were implanted.

C3H/HeN mice [2] = assay: Cell-mediated posterior spinal fusion, micro CT; format: in vivo; settings: 10% PFTBA
tet-off BMP-2 MSCs = assay: LDH release cytotoxicity assay of MSCs in fibrin gel in vitro; format: cell-based; settings: 10% PFTBA (w/v) in 100 μl fibrin gel, 10^6 MSCs, days 1 and 3 after cell seeding
Protocol: Effect of PFTBA on cell survival and oxygen levels—10^6 tet-off BMP-2 MSCs were suspended in 100 μl fibrin gel and cultured in 35-mm plates. In these conditions, the inner region of the hydrogel is hypoxic (data not shown). The experimental groups included hydrogels which included 0% or 10% PFTBA (w/v). Cell death was measured using the LDH release cytotoxicity assay on Days 1, 3, 7 and 14. […] Note that cytotoxicity was reduced over time, probably since nutrients and oxygen supply were more available to the remaining surviving cells. In a separate experiment, oxygen levels were measured in the center of MSC-loaded gels ([…] in 300 μl fibrin gel) using the Microx TX3 oxygen sensor (Presens, Precision Sensing GmbH, Regensburg, Germany).

C3H/HeN mice [3] = assay: Radius bone defect regeneration, micro CT; settings: 2.5-mm radius defect, fibrin gel with MSCs, 14 days
Protocol: Briefly, C3H/HeN female mice aged 6-8 weeks (n=16) were anesthetized using ketamine-xylazine mixture injected intraperitoneal. The skin of the forelimb was swabbed with isopropyl alcohol (70%). The skin was cut and 2.5 mm-long defect was created in the radius bone. Approximately one million Tet-off BMP2 cells were suspended in fibrin gel (Baxter) and supplemented with 5 or 10% PFTBA (Sigma, n=5 for each group) or not supplemented at all (n=6). The cell-gel mixture was incubated for 5 minutes in room temperature (RT) under sterile conditions to allow the fibrin to gel, and was subsequently implanted into the defect site. The mice were sacrificed 2 weeks post-transplantation; limbs were harvested and scanned using the μCT in order to analyze bone formation.
A quantitative morphometric analysis of the bone formation in nonunion fractures, was undertaken using μCT as previously described (Tai, K., et al., 2008, Tissue Eng Part A 14, 1709-1720). Mouse forelimbs, including ulna and radius, as well as native muscle and soft tissue were scanned using a Desktop Cone-Beam Micro-CT Scanner (μCT 40; Scanco Medical AG, Bruttisellen, Switzerland) at a spatial nominal resolution of 20 mm. A constrained 3D Gaussian filter (sigma=0.8 and support=1) was used to partly suppress the noise in the volumes. The bone tissue was segmented from marrow and soft tissue using a global thresholding procedure. In the nonunion fracture site, the evaluation was done only in the central 2-mm of the bone defect, including only newly formed bone. Morphometric indices were determined as described earlier.

C3H/HeN mice [4] = assay: Ectopic bone formation by subcutaneous hydrogel implants with Tet-off BMP2 MSCs, micro CT and histology; settings: for bone volume of ectopic bone: SC implant, mean±standard error
Protocol: Ectopic implantations—At near confluency, Tet-off BMP2 cells or Tet-off BMP2 Luc/GFP cells were trypsinized and counted using the trypan blue exclusion method. Aliquots of cells (one million Tet-off BMP2 cells or 3 million Tet-off BMP2 Luc/GFP cells) were resuspended in 50111 of fibrin or silk gel. Five, 10 or 20% [weight per volume (w/v)] Heptacosafluorotributylamine (Perfluorotributylamine, PFTBA, Sigma catalogue number H5262; Sigma-Aldrich, St Louis, Mo., USA) was added to the hydrogel just before implantations.
The cell-hydrogel mixture was injected subcutaneously in 8 weeks old female C3H/HeN mice, as follows: mice were anesthetized with a mixture of xylazine and ketamine (0.15% xylazine and 0.85% ketamine), which was injected intraperitoneally (i.p.) at 1 μl/g body weight. The area of injection was shaved and cleaned using 70% ethanol. Using 27G tuberculin syringe the cells-gel mixture was injected subcutaneously. Each mouse received 3 or 4 implants, consistent of 50 μl hydrogel in which cells and PFTBA were mixed. Mice where sacrificed after two weeks, and implants were harvested and fixed in 4% formalin.
Analysis of bone formation using micro CT imaging—In order to quantify bone formation in the ectopic implants, a high-resolution μCT system, Desktop μCT 40 (Scanco Medical A G, Bassersdorf, Switzerland) was used. Micro-tomographic slices were acquired at 1000 projections and reconstructed at a spatial nominal resolution of 12 μm. A constrained 3-D Gaussian filter (σ=0.8 and support=1) was used to partly suppress the noise in the volumes. The mineralized tissue was segmented from the hydrogel using a global thresholding procedure (Muller, R., and Ruegsegger, P. 1997, Stud Health Technol Inform 40, 61-79). In addition to the visual assessment of structural images, morphometric indices were determined from the microtomographic datasets using direct 3D morphometry (Hildebrand, T., 1999, J Bone Miner Res 14, 1167-1174). […] The following morphometric indices were determined for the newly formed bone: (i) volume of bone tissue; (ii) bone mineral density; (iii) trabecular thickness; (iv) anisotropy; (v) bone volume density and (vi) trabecular separation.
Histological analysis of bone formation—Harvested ectopic implants and regenerated limbs were processed for histology and stained as described (Sheyn, Kimelman-Bleich et al. 2007). In short, samples were fixed in 70% ethanol, passed through a graded series of ethanols, and embedded in paraffin. Sections 5-8 μm thick were cut from each paraffin block using a motorized microtome (Leica Microsystems, Wetzlar, Germany). Masson trichrom staining was performed in order to evaluate the histomorphology of the mineralized tissue.

[5] = fibrin gel with MSCs, 10% PFTBA (w/v), two weeks

FC(F)(F)C(F)(F)C(F)(F)C(F)(F)N(C(F)(F)C(F)(F)C(F)(F)C(F)(F)F)C(F)(F)C(F)(F)C(F)(F)C(F)(F)F [PFTBA, Heptacosafluorotributylamine]
luciferase activity (cell survival) ([1]; day 3 post implantation): 21,519±2,047 integrated light units (ILU)
luciferase activity (cell survival) versus no-PFTBA group ([1]; day 7 post implantation): no significant difference between the groups was found
osteocalcin activity (osteocalcin; day 5 post-implantation): 2.76±0.48 relative light units (RLU; implant/tail)
osteocalcin activity versus no PFTBA group (osteocalcin; day 7 and 14): no significant difference was noted
average connectivity density elevation versus no PFTBA group (C3H/HeN mice [2]; week 3 post-implantation): 1.29 fold
bone volume density elevation versus no PFTBA group (C3H/HeN mice [2]; week 3 post-implantation): 1.25 fold
bone volume difference versus no PFTBA group (C3H/HeN mice [2]; week 3 post-implantation): this difference was not noted
trabecular number increase versus no PFTBA group (C3H/HeN mice [2]; week 3 post-implantation): 1.44 fold
bone volume of spinal fusion mass (C3H/HeN mice [2]; fibrin gel with MSCs, lumbar paravertebral muscle, 6 weeks post implantation): 70.71±2.7 mm^3
cell death (LDH release cytotoxicity) versus 0% PFTBA (tet-off BMP-2 MSCs): significantly fewer cells died
volume of bone formed versus no PFTBA (C3H/HeN mice [3]; 5 or 10% PFTBA (w/v)): no significant difference
BMD elevation of the formed bone, supplemented versus non-supplemented (C3H/HeN mice [3]; 5 or 10% PFTBA): 1.1-1.2
trabecular thickness elevation versus no-PFTBA group (C3H/HeN mice [3]; 5 or 10% PFTBA): 1.3 fold
bone volume of ectopic bone (C3H/HeN mice [4]; fibrin gel with MSCs, 5% PFTBA (w/v), two weeks): 0.98±0.26 mm^3
bone volume of ectopic bone (C3H/HeN mice [4]; [5]): 1.77±0.47 mm^3
increase in bone volume compared with the 0% PFTBA group (C3H/HeN mice [4]; [5]): 2.5 fold
histology of implants (bone, hypertrophic cartilage, bone marrow) (C3H/HeN mice [4]; fibrin gel, 0%, 5%, 10% PFTBA, day 14, Masson trichrom): No histological difference was found
volume of the ectopic bone versus no PFTBA group (C3H/HeN mice [4]; two weeks, 1-tailed T-test p=0.033): significant differences were found
